Test results taken from patent US20050050594A1, “Tryptophan synthase as a site of herbicide action” (priority 1999, published 2005).

Experiments:
[1] = tested on: a variety of dicotyledonous and monocotyledonous plants; test: Postemergence greenhouse herbicidal test; type: in vivo; conditions: Postemergence application
Procedure: The herbicidal activity of the compounds was tested as described in the U.S. Pat. No. 5,635,449. […] In the tests, seedling plants are grown in jiffy flats for about two weeks. The test compounds are dispersed in 50/50 acetone/water mixtures containing 0.5% TWEEN®20, a polyoxyethylene sorbitan monolaurate surfactant of Atlas Chemical Industries, in sufficient quantities to provide the equivalent of about 1.0 kg to 8.0 kg per hectare of test compound when applied to the plants through a spray nozzle operating at 40 psi for a predetermined time. After spraying, the plants are placed on greenhouse benches and are cared for in the usual manner, commensurate with conventional greenhouse practices. From four to five weeks after treatment, the seedling plants are examined and rate according to the rating system set forth below.

TSβ (Spinacea enzyme) = test: TSβ assay with partially purified spinach enzyme; type: biochemical, Spinacea oleracea; design: key: the increase in the number of “+” corresponds to the increase of inhibition; +++++: the increase in the number of “+” corresponds to the increase of inhibition; +++++++: the increase in the number of “+” corresponds to the increase of inhibition; conditions: determined qualitatively
Procedure: The assay was conducted in microfuge tubes by the TSβ reaction (indole+L-serine→L-tryptophan+H2O). 100 μL of extract was mixed with 150 μL of 0.4 mM indole, 80 mM serine, 0.03 mM PLP, 0.1 M Tris-Cl buffer pH 7.8, containing 7.5 μL of saturated NaCl. The mixture was incubated at 21° C. for increasing time intervals, from 10 min to several hours. The reaction was terminated by adding 25 μL 1 N NaOH, then 1 mL toluene with mixing, and then centifuging in a microfuge 2 min at 10,000×G to partition remaining indole into the toluene phase and away from the enzyme. Remaining indole was subsequently partitioned into the indole reagent phase and reacted with dimethylaminobenzaldehyde: 500 μL of the toluene layer from the microfuge tubes was mixed with 1 ml of the indole reagent in another tube and allowed to separate for 20 min, then the lower layer was carefully pipetted into a cuvette and its absorbance measured at 540 nm. This part of the assay was conducted as known in the art.
A unique microtiter plate method was also developed to streamline the partitioning steps and data collection. First, the TSβ reaction was performed as above in microfuge tubes. […] The plate was covered by a mylar sheet (to protect the plate reader and avoid evaporation) and absorbance was monitored on the plate reader at 535 nm. […]
TS was partially purified from spinach for use in the TSβ assay. The greatest degree of purification was achieved by homogenizing the tissue, preparing the 30-50% ammonium sulfate fraction and freezing it, thawing it, and applying the dissolved precipitate to an FPLC column (Waters SW300, Waters Corporation, Franklin, Mass.) to separate the TS activity (measured as TSβ) from the bulk of the protein. […] Because of the low yield of the assay of partially purified plant TS, endogenous enzyme was measured in crude extracts or in enzyme preparations involving one or two purification steps. […]

Structure (SMILES): O=P(O)(O)CCCCSc1ccccc1O [Compound 22, {4-[(o-hydroxyphenyl)thio]butyl}-phosphonic acid]
- Herbicidal Activity [1]: +++ (+++ = 80-100% injury to two species)
- TSβ (Spinacea enzyme), relative activity (TSβ (Spinacea enzyme)): +
